According to patent US20180273528A1 (LES LABORATOIRES SERVIER, priority 2015, published 2018):

Legend:
DYRK1B = biological target: T1, DYRK1B (Homo sapiens, UniProt Q9Y463); assay: Kinase TR-FRET assay, DYRK1B; type: biochemical; details: full-length human kinase, 10 μM ATP
T1 construct: full-length human kinases from Carna Biosciences; purchased Carna Biosciences 04-131
Summary of the method: (§1)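 Compounds tested at 0.1 nM to 30 μM in reaction buffer; reaction stopped with 10 mM EDTA. Phosphorylated MBP detected with 1 nM Europium-labelled anti-phospho-Thr232 antibody by TR-FRET.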

CLK1 = biological target: T2, CLK1 (Homo sapiens, UniProt P49759); assay: Kinase TR-FRET assay, CLK1; type: biochemical; details: full-length human kinase, 10 μM ATP
T2 construct: full-length human kinases from Carna Biosciences; purchased Carna Biosciences 04-126
T2 sequence (P49759 1-526 isoform P49759-3): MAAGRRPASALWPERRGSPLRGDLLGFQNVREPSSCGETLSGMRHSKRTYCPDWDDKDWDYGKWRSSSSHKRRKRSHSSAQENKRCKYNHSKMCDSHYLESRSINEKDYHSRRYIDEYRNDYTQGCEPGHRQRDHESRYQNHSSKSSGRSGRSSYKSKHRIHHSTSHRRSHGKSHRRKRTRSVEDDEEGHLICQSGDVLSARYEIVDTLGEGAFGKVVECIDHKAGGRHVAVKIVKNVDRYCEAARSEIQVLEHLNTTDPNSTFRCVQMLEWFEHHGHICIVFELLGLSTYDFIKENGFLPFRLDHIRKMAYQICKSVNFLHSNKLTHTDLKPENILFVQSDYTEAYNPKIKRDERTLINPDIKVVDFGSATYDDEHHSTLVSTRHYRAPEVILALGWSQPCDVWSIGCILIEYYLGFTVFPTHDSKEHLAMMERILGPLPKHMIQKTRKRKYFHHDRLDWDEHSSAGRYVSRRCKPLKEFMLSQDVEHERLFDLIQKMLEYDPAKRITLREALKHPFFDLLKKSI
Experimental: Inhibition of the enzymatic activity of human kinases was evaluated in a Time-Resolved Fluorescence Resonance Energy Transfer (TR-FRET) assay in 384-well reaction plates. […] Test compounds of the invention were added in reaction buffer at a range of concentrations from 0.1 nM to 30 μM. Following addition of EDTA (Sigma E7889, 10 mM) to stop the reaction, Europium-labelled mouse monoclonal antibody recognizing phospho-Thr232 in MBP (Perkin Elmer TRF0201, 1 nM) was added.

DYRK1A [1] = biological target: T3, DYRK1A (Homo sapiens, UniProt Q13627); assay: Kinase TR-FRET assay, DYRK1A; type: biochemical; parameters: full-length, wild-type human DYRK1A (NM_001396) with an HA tag; expressed in transfected cells; host or cells: human U2-OS osteosarcoma cells, transient transfection of a pcDNA3.1 plasmid; details: full-length human kinase, 10 μM ATP
Summary of the method: as §1

DYRK1A [2] = biological target: T3, DYRK1A; assay: Cellular DYRK1 autophosphorylation assay in U2-OS cells; type: cell-based; parameters: full-length, wild-type human DYRK1A (NM_001396) with an HA tag; expressed in transfected cells; host or cells: human U2-OS osteosarcoma cells, transient transfection of a pcDNA3.1 plasmid; details: U2-OS cells transfected with HA-tagged human DYRK1A, 5 hours exposure; read-out: IC50 (μM) P-Ser520-Dyrk1A -Cell assay
Summary of the method: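 IC50 derived from dose-response curves of phospho-Ser520-DYRK1A (blots normalised to total DYRK1A), quantified by either immunoblotting with chemiluminescence or Mesoscale electrochemiluminescent ELISA. Compounds applied to U2-OS cells across several concentrations for 5 hours.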

[3] = biological target: T4, His-TEV-DYRK1A Kinase domain (aa127-485) (Homo sapiens, UniProt Q13627); assay: Kinase ADP assay (ADP Hunter), DYRK1A kinase domain; type: biochemical; details: 20 μM ATP
T4 construct: His-TEV-DYRK1A Kinase domain (aa127-485); His tag (N); TEV protease cleavage site (N)
Summary of the method: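 Readout is ADP Hunter fluorescence at 590 nm, developed 20 min at 30 °C after the kinase step. That step ran 10 min at 30 °C in Hepes pH 7.4 (10 mM MgCl2, 1 mM EGTA, 0.02% Tween20) containing 20 μM ATP, 40 μM peptide and 20 nM enzyme plus compound.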

CDK9 = biological target: T5, CDK9 (Homo sapiens, UniProt P50750); assay: Kinase TR-FRET assay, CDK9; type: biochemical; details: full-length human kinase, 10 μM ATP
T5 construct: full-length human kinases from Carna Biosciences; purchased Carna Biosciences 04-110
T5 sequence (P50750 whole entry): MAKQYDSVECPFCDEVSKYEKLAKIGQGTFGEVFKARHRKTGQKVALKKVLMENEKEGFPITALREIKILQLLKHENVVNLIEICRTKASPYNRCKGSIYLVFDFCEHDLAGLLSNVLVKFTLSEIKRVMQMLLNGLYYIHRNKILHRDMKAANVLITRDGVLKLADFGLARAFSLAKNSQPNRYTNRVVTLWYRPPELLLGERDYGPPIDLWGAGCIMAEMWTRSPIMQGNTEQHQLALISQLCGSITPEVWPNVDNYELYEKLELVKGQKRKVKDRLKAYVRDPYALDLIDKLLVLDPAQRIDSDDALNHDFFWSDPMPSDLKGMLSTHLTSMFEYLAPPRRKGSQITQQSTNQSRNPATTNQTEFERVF
T5 sequence (O60563 whole entry partner): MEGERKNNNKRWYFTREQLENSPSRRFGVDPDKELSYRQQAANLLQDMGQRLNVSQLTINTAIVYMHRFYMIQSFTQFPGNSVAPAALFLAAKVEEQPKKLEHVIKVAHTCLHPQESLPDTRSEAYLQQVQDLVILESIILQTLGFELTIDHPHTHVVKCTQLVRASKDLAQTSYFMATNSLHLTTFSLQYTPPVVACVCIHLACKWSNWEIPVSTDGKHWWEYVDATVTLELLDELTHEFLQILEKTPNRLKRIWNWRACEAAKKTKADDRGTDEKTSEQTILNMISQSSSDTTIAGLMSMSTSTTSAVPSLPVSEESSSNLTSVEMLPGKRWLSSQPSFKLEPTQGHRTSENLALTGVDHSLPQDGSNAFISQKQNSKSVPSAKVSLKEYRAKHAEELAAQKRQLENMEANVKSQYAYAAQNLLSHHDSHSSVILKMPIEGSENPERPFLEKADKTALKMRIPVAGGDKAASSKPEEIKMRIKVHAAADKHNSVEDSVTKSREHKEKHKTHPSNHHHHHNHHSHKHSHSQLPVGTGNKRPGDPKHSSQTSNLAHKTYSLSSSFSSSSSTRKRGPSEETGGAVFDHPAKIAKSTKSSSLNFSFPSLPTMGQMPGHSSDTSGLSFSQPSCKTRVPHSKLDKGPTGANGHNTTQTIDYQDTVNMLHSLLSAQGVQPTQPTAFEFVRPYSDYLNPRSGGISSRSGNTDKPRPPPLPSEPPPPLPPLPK
Summary of the method: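 Full-length human CDK9 (0.9 ng/μl) incubated 100 min at room temperature with 10 μM ATP, 100 nM ULight-MBP peptide and compound (0.1 nM–30 μM) in 50 mM HEPES pH 7.4, 1 mM EGTA, 10 mM MgCl2, 2 mM DTT, 0.01% Tween20. Stopped with 10 mM EDTA, then 1 nM Eu-anti-phospho-Thr232 MBP antibody added for 1 h. TR-FRET read at 665/620 nm with 340 nm excitation.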

T1 sequence (Q9Y463 whole entry): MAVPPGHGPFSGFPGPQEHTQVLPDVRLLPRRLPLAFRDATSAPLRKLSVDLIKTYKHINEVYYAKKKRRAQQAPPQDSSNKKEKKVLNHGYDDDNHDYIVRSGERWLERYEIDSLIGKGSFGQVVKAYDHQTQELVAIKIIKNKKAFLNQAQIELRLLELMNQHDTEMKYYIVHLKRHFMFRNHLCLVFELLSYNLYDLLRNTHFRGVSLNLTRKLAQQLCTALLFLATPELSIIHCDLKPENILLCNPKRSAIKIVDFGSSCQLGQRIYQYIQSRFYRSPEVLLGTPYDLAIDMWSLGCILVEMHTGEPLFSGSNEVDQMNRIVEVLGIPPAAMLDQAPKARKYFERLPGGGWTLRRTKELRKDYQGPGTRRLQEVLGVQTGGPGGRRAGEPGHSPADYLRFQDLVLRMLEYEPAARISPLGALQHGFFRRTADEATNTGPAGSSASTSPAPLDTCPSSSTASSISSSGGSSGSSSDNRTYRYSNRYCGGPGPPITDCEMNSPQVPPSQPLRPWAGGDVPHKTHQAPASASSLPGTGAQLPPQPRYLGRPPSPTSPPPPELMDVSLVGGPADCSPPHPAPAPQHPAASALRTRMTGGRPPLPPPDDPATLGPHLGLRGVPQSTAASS

IC50 (DYRK1B) [µM] | IC50 (CLK1) [µM] | IC50 (DYRK1A [1]) [µM] | IC50 (DYRK1A [2]) [µM] | IC50 [3] [µM] | IC50 (CDK9) [µM] | Structure (SMILES)
0.007 | 0.037 | 0.008 | 0.111 | 0.012 | > 3 | Cc1nc2ccc(-c3cc(N)nc(N)c3)nc2n1C[C@H](C)Oc1ccccc1 (single isomer, unassigned) [Example 107]
0.015 | 0.025 | 0.01 | 0.22 | 0.03 | > 3 | Cc1nc2ccc(-c3cc(N)nc(N)c3)nc2n1C[C@H]1C[C@@H]1c1ccccc1 (single isomer, unassigned) [Example 109]
0.014 | 0.025 | 0.006 | 0.09 | 0.005 | 2.62 | Cc1nc2ccc(-c3cc(N)nc(N)c3)nc2n1CC1Cc2ccccc21 (single isomer, unassigned) [Example 112, 4-[3-(bicyclo[4.2.0]octa-1,3,5-trien-7-ylmethyl)-2-methyl-3H-imidazo[4,5-b]pyridin-5-yl]pyridine-2,6-diamine]
0.013 | 0.083 | 0.016 | – | 0.074 | > 3 | Cc1nc2ccc(-c3cc(N)nc(N)c3)nc2n1C[C@H](C)Oc1ccccn1 (single isomer, unassigned) [Example 174]
0.016 | 0.04 | 0.007 | 0.131 | 0.02 | > 3 | Cc1nc2ccc(-c3cc(N)nc(N)c3)nc2n1C[C@@H](C)Oc1ccccn1 (single isomer, unassigned) [Example 175]
0.005 | 0.017 | 0.005 | 0.042 | 0.014 | 0.554 | Cc1nc2ccc(-c3cc(N)nc(N)c3)nc2n1C[C@@H](C)Oc1cccc(Cl)n1 (single isomer, unassigned) [Example 177]
0.007 | 0.017 | 0.007 | 0.026 | 0.013 | 0.339 | Cc1nc2ccc(-c3cc(N)nc(N)c3)nc2n1C[C@@H](C)Oc1cccc(F)n1 (single isomer, unassigned) [Example 189]
0.001 | 0.016 | 0.002 | 0.05 | 0.008 | 1.95 | C=CCCn1c(C)nc2ccc(-c3cc(N)nc(N)c3)nc21 [Example 14, 4-[3-(but-3-en-1-yl)-2-methyl-3H-imidazo[4,5-b]pyridin-5-yl]pyridine-2,6-diamine]
0.008 | 0.012 | 0.002 | 0.017 | 0.006 | 0.57 | Cc1nc2ccc(-c3cc(N)nc(N)c3)nc2n1C1CCC1 [Example 23, 4-(3-cyclobutyl-2-methyl-3H-imidazo[4,5-b]pyridin-5-yl)pyridine-2,6-diamine]
0.017 | 0.017 | 0.003 | 0.13 | 0.011 | 0.979 | Cc1nc2ccc(-c3cc(N)nc(N)c3)nc2n1C1CCOCC1 [Example 49, 4-[2-methyl-3-(tetrahydro-2H-pyran-4-yl)-3H-imidazo[4,5-b]pyridin-5-yl]pyridine-2,6-diamine]
0.001 | 0.029 | 0.006 | 0.038 | 0.007 | 4.37 | C=CCn1c(C)nc2ccc(-c3cc(N)nc(N)c3)nc21 [Example 51, 4-[2-methyl-3-(prop-2-en-1-yl)-3H-imidazo[4,5-b]pyridin-5-yl]pyridine-2,6-diamine]
0.009 | 0.015 | 0.004 | 0.019 | 0.007 | – | COc1ccc2c(c1)CC(n1c(C)nc3ccc(-c4cc(N)nc(N)c4)nc31)C2 (stereo not drawn) [Example 98, 4-[3-(5-methoxy-2,3-dihydro-1H-inden-2-yl)-2-methyl-3H-imidazo[4,5-b]pyridin-5-yl]pyridine-2,6-diamine]
0.009 | 0.019 | 0.005 | 0.039 | 0.005 | – | Cc1nc2ccc(-c3cc(N)nc(N)c3)nc2n1CC1Cc2ccccc2C1 [Example 114, 4-[3-(2,3-dihydro-1H-inden-2-ylmethyl)-2-methyl-3H-imidazo[4,5-b]pyridin-5-yl]pyridine-2,6-diamine]
0.005 | 0.218 | – | 0.143 | 0.02 | > 10 | CCCCn1c(CCC)nc2ccc(-c3cc(N)nc(N)c3)nc21 [Example 161, 4-(3-butyl-2-propyl-3H-imidazo[4,5-b]pyridin-5-yl)pyridine-2,6-diamine]
0.005 | 0.015 | 0.003 | 0.026 | 0.009 | – | Cc1nc2ccc(-c3cc(N)nc(N)c3)nc2n1CCOc1cccc(Cl)n1 [Example 165, 4-(3-{2-[(6-chloropyridin-2-yl)oxy]ethyl}-2-methyl-3H-imidazo[4,5-b]pyridin-5-yl)pyridine-2,6-diamine]
0.006 | 0.015 | 0.002 | 0.032 | 0.011 | – | Cc1nc2ccc(-c3cc(N)nc(N)c3)nc2n1CCOc1cccc(Br)n1 [Example 168, 4-(3-{2-[(6-bromopyridin-2-yl)oxy]ethyl}-2-methyl-3H-imidazo[4,5-b]pyridin-5-yl)pyridine-2,6-diamine]
– | 0.017 | – | 0.092 | 0.025 | – | Cc1nc2ccc(-c3cc(N)nc(N)c3)nc2n1CCOc1ccc(F)cc1 [Example 198, 4-{3-[2-(4-fluorophenoxy)ethyl]-2-methyl-3H-imidazo[4,5-b]pyridin-5-yl}pyridine-2,6-diamine]
– | 0.018 | – | 0.18 | 0.023 | – | COc1cccc(OCCn2c(C)nc3ccc(-c4cc(N)nc(N)c4)nc32)c1 [Example 202, 4-{3-[2-(3-methoxyphenoxy)ethyl]-2-methyl-3H-imidazo[4,5-b]pyridin-5-yl}pyridine-2,6-diamine]
– | 0.016 | – | 0.148 | 0.017 | – | Cc1nc2ccc(-c3cc(N)nc(N)c3)nc2n1CCOc1ccccc1F [Example 203, 4-{3-[2-(2-fluorophenoxy)ethyl]-2-methyl-3H-imidazo[4,5-b]pyridin-5-yl}pyridine-2,6-diamine]
– | 0.021 | – | 0.12 | 0.026 | – | Cc1nc2ccc(-c3cc(N)nc(N)c3)nc2n1CCOc1ccc(Cl)cc1 [Example 207, 4-{3-[2-(4-chlorophenoxy)ethyl]-2-methyl-3H-imidazo[4,5-b]pyridin-5-yl}pyridine-2,6-diamine]
– | 0.02 | – | 0.097 | 0.009 | – | CCn1c(C#N)nc2ccc(-c3cc(N)nc(N)c3)nc21 [Example 223, 5-(2,6-diaminopyridin-4-yl)-3-ethyl-3H-imidazo[4,5-b]pyridine-2-carbonitrile]
– | 0.02 | – | 0.057 | 0.009 | – | N#Cc1nc2ccc(-c3cc(N)nc(N)c3)nc2n1C1CC1 [Example 224, 3-cyclopropyl-5-(2,6-diaminopyridin-4-yl)-3H-imidazo[4,5-b]pyridine-2-carbonitrile]
– | 0.042 | – | 0.262 | 0.01 | – | Cn1c(C#N)nc2ccc(-c3cc(N)nc(N)c3)nc21 [Example 227, 5-(2,6-diaminopyridin-4-yl)-3-methyl-3H-imidazo[4,5-b]pyridine-2-carbonitrile]
